Experimental data published in patent US20240408022A1, “DESIDUSTAT PARTICLES AND COMPOSITIONS THEREOF” (ZYDUS LIFESCIENCES LIMITED, priority 2021, published 2024).

Assay: Particle size and specific surface area analysis (Malvern Mastersizer 3000, laser diffraction)
Format: physicochemical
Conditions: for D10 / D50 / D90: particle size of desidustat used in the composition
Protocol: (i) Particle Size and Specific Surface Area Analysis Method:
Particle size was determined by Malvern Mastersizer 3000 with Hydro MV accessory, laser diffraction particle size analyser. About 100 mg of drug substance weighed and transferred into 100 mL of glass beaker. About 10-15 drops of dispersant sunflower oil:cyclohexane (80:20) were added and the lumps were broken with glass rod for about 3 to 5 min. 20 mL of dispersant was added into the same glass beaker and the content were shaken for 3-5 minutes with glass rod to mix well. Background measurement using dispersant was performed. When the blank correction/background measurement was over, sample slurry (with continuous manual shaking) was added in the sampler at 1500 rpm to get the target obscuration value between 10% and 30% and remained constant. Then the histogram was recorded.

[1] = Example 1, after further multi-milling using 0.2 mm sieve

| D10 | D50 | D90 | Particle size distribution D10 [1] | Particle size distribution D50 [1] | Particle size distribution D90 [1] | Specific surface area [1] | Particle size D90 (Example 1, after multi-milling using 5 mm sieve and drying, before 0.2 mm sieve) | SMILES |
| --- | --- | --- | --- | --- | --- | --- | --- | --- |
| 0.80 μm | 22.7 μm | 130.0 μm |  |  |  |  |  | O=C(O)CNC(=O)c1c(O)c2ccccc2n(OCC2CC2)c1=O [Milled desidustat] |
|  |  |  | 0.80 μm | 22.7 μm | 130 μm | 2 m^2/g | 366 μm | O=C(O)CNC(=O)c1c(O)c2ccccc2n(OCC2CC2)c1=O [desidustat, 2-(1-(Cyclopropylmethoxy)-4-hydroxy-2-oxo-1,2-dihydroquinoline-3-carboxamido) acetic acid] |
| 2.16 μm | 98.3 μm | 366 μm |  |  |  |  |  | O=C(O)CNC(=O)c1c(O)c2ccccc2n(OCC2CC2)c1=O [Unmilled desidustat] |
